According to PubChem BioAssay (NCI):
Several values for one entry are separate records, joined by “and”; a condition that tells them apart may be missing. Equal entries are not always repeated.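 Method: 48-hour compound exposure of cells in 96-well plates, five concentrations, linear interpolation of endpoints. At the GI50, growth is halved. TGI denotes the concentration required for complete inhibition of growth.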

Assays:
Assay in all cases: inhibition of tumour cell growth, NCI panel, 48 h
A549 NSCLC = test system: A549 NSCLC
KM12 colon = test system: KM12 colon
NCI-H460 lung = test system: NCI-H460 lung
OVCAR-4 ovarian = test system: OVCAR-4 ovarian
HCT-116 colon = test system: HCT-116 colon
A498 renal = test system: A498 renal
SF-295 CNS = test system: SF-295 CNS
HOP-62 NSCLC = test system: HOP-62 NSCLC
MCF7 breast = test system: MCF7 breast
HS 578T breast = test system: HS 578T breast

Row | Compound | TGI (A549 NSCLC) | TGI (KM12 colon) [µM] | TGI (NCI-H460 lung) [µM] | TGI (OVCAR-4 ovarian) [µM] | TGI (HCT-116 colon) | TGI (A498 renal) [µM] | TGI (SF-295 CNS) [µM] | TGI (HOP-62 NSCLC) [µM] | TGI (MCF7 breast) | GI50 (A549 NSCLC) [µM] | GI50 (MCF7 breast) | GI50 (SF-295 CNS) [µM] | GI50 (KM12 colon) | GI50 (NCI-H460 lung) [µM] | GI50 (HCT-116 colon) [µM] | GI50 (HS 578T breast) [µM] | TGI (HS 578T breast) | GI50 (A498 renal) | GI50 (HOP-62 NSCLC) [µM] | GI50 (OVCAR-4 ovarian) [µM]
1 | Nc1nc(N)c(-c2ccccc2)c(C(=O)Nc2ccccc2)n1 | > 100 µM | > 100 | > 100 | > 100 | > 100 µM | > 100 | – | – | – | – | – | – | – | – | – | – | – | – | – | –
2 | CCC(O)C1Cc2c(C)cc3c(c2O1)C(=O)c1ccccc1C3=O (configuration not stated) | > 100 µM | > 100 | > 100 | > 100 | > 100 µM | 70.3 | 86.8 | > 100 | – | – | – | – | – | – | – | – | – | – | – | –
3 | CCCCNC(=O)C1C(=O)N(CCCC)C(=O)/C1=N\N (configuration not stated) | – | > 100 | > 100 | > 100 | > 100 µM | > 100 | > 100 | > 100 | – | – | – | – | – | – | – | – | – | – | – | –
4 | NC(N)=NC(N)=Nc1cnccn1 | > 100 µM | > 100 | – | > 100 | > 100 µM | > 100 | > 100 | > 100 | > 100 µM | – | – | – | – | – | – | – | – | – | – | –
5 | COC(=O)c1ccccc1N1C(=O)Cc2ccccc2C1=O | > 100 µM | > 100 | – | – | – | – | > 100 | – | – | – | – | – | – | – | – | – | – | – | – | –
6 | COc1ccc2c(c1)[nH]c(=O)c1c3ccccc3cn21 | 1.65 µM and 1.69 µM | – | 1.12 | – | 1.32 µM and 1.12 µM | – | 1.05 | 1.23 | 1.46 µM and 12.7 µM | 0.067 | 0.0282 µM and < 0.0378 µM | 0.0268 | 0.0331 µM and < 0.0486 µM | 0.0348 | 0.0395 | 0.0508 | 2.71 µM and 14.1 µM | 0.0223 µM and < 0.0375 µM | 0.0312 | –
7 | Cc1ccc(NC(=O)c2cc3ccccc3c(N=Nc3cc(S(=O)(=O)O)ccc3O)c2O)c(C)c1 | 80.9 µM | 53.9 | – | > 100 | > 100 µM | > 100 | 88.9 | > 100 | – | – | – | – | – | – | – | – | > 100 µM | – | – | –
8 | NC1CCCCC1N.O=[Se]([O-])[O-].[Pt+4] (configuration not stated) | > 61.8 µM | > 100 | 5.15 | > 100 | > 45.2 µM | 24.8 | 21.6 | > 51.4 | – | 0.48 | – | 0.304 | 2.51 µM | 0.205 | 0.236 | – | – | 1.76 µM | 2.52 | 2.63
9 | CCOC(=O)NC/C=C/COC1CCCCO1 (configuration not stated) | > 100 µM | > 100 | > 100 | > 100 | > 100 µM | > 100 | – | > 100 | – | – | – | – | – | – | – | – | – | – | – | –
10 | [Cl][Hg][c]1ccc(Cl)s1 | 60.9 µM | 28 | 35.7 | 4.78 | 2.97 µM | 31.2 | 25.7 | 21.8 | – | 18.7 | – | 11.5 | 14.3 µM | 8.9 | 1.49 | 4.41 | 73.7 µM | 17.2 µM | 4.29 | 1.76
11 | COc1ccc(Sc2nc3cc(N)cc(N)c3nc2-c2ccccc2)cc1 | > 100 µM | > 100 | > 100 | – | > 100 µM | > 100 | > 100 | > 100 | > 100 µM | 42.4 | 16.5 µM | > 100 | 28.4 µM | 20 | 14.7 | > 100 | > 100 µM | > 100 µM | > 100 | –
12 | N#CCCCCCOCCOCCOCCOCCOCCCCCC#N | > 100 µM | > 100 | > 100 | > 100 | > 100 µM | > 100 | > 100 | > 100 | – | – | – | – | – | – | – | – | – | – | – | –
13 | N#Cc1c(N2CCOCC2)nc(=S)[nH]c1-c1ccccc1 | > 100 µM | > 100 | > 100 | > 100 | > 100 µM | 26.8 | – | 68.1 | > 100 µM | 21.3 | 4.89 µM | – | 35 µM | 9.57 | 42.4 | 7.65 | 60.7 µM | 3.66 µM | 7.93 | 65.7
14 | CCCNCC(=O)O[C@]1(CC)C(=O)OCc2c1cc1n(c2=O)Cc2cc3ccccc3nc2-1 | 1.98 µM | 8.05 | 0.154 | 3.99 | – | 0.849 | 2.1 | – | – | – | – | – | – | – | – | – | – | – | – | –
15 | CCNC(=O)Nc1ccc(Oc2ccnc3ccc4c(ccn4C)c23)cc1 | > 100 µM | > 100 | > 100 | > 100 | > 100 µM | – | 72.1 | > 100 | > 100 µM | 44.1 | 37.9 µM | 18.9 | 37.7 µM | 25 | 21.2 | – | – | – | 46.9 | 54.2
16 | O=C(NCc1cccnc1)C1COc2cc(-c3cc(=O)c4ccccc4o3)ccc2O1 (configuration not stated) | > 100 µM | > 100 | > 100 | > 100 | > 100 µM | 99.7 | > 69.8 | 24.8 | – | – | – | – | – | – | – | – | – | – | – | –
17 | CC(=O)Nc1c(I)c(NC(C)=O)c(I)c(C(=O)O)c1I | > 100 µM | > 100 | > 100 | > 100 | > 100 µM | > 100 | – | > 100 | > 100 µM | > 100 | > 100 µM | – | > 100 µM | > 100 | > 100 | > 100 | > 100 µM | > 100 µM | > 100 | > 100
18 | COc1cccc(/C=N/NC(=O)c2ccccc2N2CCCC2)c1O | > 100 µM | > 100 | 52 | > 100 | > 100 µM | > 100 | > 100 | > 100 | – | 18.8 | – | 4.88 | 38.4 µM | 3.25 | 3.3 | 10.3 | 68.8 µM | 4.97 µM | 3.58 | 2.63
19 | O=C(OC1CCC2OOC1O2)c1ccc([N+](=O)[O-])cc1 (configuration not stated) | > 100 µM | > 100 | > 100 | > 100 | > 100 µM | > 100 | > 100 | > 100 | – | – | – | – | – | – | – | – | – | – | – | –
20 | Nc1nc(Cl)cc(NCC(O)CO)n1 (configuration not stated) | > 100 µM | > 100 | > 100 | > 100 | > 100 µM | > 100 | > 100 | > 100 | – | – | – | – | – | – | – | – | – | – | – | –
21 | CCOC(=O)C(N=C(c1ccccc1)c1ccccc1)N(C(=O)OC(C)(C)C)C(=O)OC(C)(C)C (configuration not stated) | > 100 µM | > 100 | – | > 100 | > 100 µM | – | > 100 | – | – | – | – | – | – | – | – | – | – | – | – | –
22 | COc1cc2c(cc1OC)CC(=O)Nc1cc(OC)c(OC)cc1CC2 | > 100 µM | > 100 | > 100 | > 100 | > 100 µM | > 100 | > 100 | > 100 | – | – | – | – | – | – | – | – | – | – | – | –
23 | COc1ccc(NC(=O)CC/C(CC(=O)c2ccco2)=N/NC(N)=S)cc1 | > 100 µM | > 100 | > 100 | > 100 | > 100 µM | > 100 | > 100 | > 100 | – | – | – | – | – | – | – | – | – | – | – | –
24 | CC[C@@]1(O)C(=O)OCc2c1cc1n(c2=O)Cc2cc3cccc([N+](=O)[O-])c3nc2-1 | 41.5 µM | 35.6 | 1.51 | 24.3 | 13.6 µM | 5.03 | 16 | 0.582 | – | 0.6 | – | 0.346 | 4.82 µM | 0.0671 | 1.58 | – | – | 1.43 µM | 0.142 | 4.04
25 | CC(C)(C)[Si](C)(C)OC1[C@@H](O[Si](C)(C)C(C)(C)C)[C@@H](CNC(=O)NC(=O)CF)O[C@H]1n1cnc2c(NC(=O)Nc3ccccc3)ncnc21 (some centres not stated) | > 50 µM | 38.3 | > 50 | > 50 | 20.5 µM | 25.3 | – | > 50 | 13.2 µM | 6.92 | 1.78 µM | – | 9.36 µM | 8.32 | 5.21 | 10.1 | > 50 µM | 8.92 µM | 9.31 | 6.18
26 | COc1cc(-c2oc3c(OC)cc(OC)c(O)c3c(=O)c2OC)cc(OC)c1OC | > 100 µM | > 100 | > 100 | > 100 | > 100 µM | – | 7.55 | 6.62 | > 100 µM | – | – | – | – | – | – | – | 8.21 µM | – | – | –
27 | CC1(Br)CC2OC3(Br)C=CC(C)(O)C2(CC1=O)C3(C)C (configuration not stated) | > 100 µM | > 100 | > 100 | > 100 | > 100 µM | > 100 | > 100 | > 100 | – | – | – | – | – | – | – | – | – | – | – | –
28 | COc1ccc2cc(C(=O)/C=C/c3ccc(N(C)C)cc3)ccc2c1 | > 100 µM | > 100 | > 100 | > 100 | > 100 µM | – | > 100 | > 100 | > 100 µM | 60.3 | 83 µM | > 100 | > 100 µM | 62.5 | > 100 | – | – | – | > 100 | 81.7
29 | CCOC(=O)c1cc(C(=O)c2cc(OC)c(OC)c(OC)c2)n2c1ccc1ccccc12 | > 100 µM | > 100 | > 100 | – | > 100 µM | 0.316 | – | > 100 | > 100 µM | 0.286 | 0.1 µM | – | 0.26 µM | 0.313 | 0.271 | 0.276 | > 20.6 µM | 0.0362 µM | 0.466 | –
